ChEMBL document CHEMBL4507256 (2021)

Columns and labels:
[1] = target: Calcium/calmodulin-dependent protein kinase type II subunit alpha (Homo sapiens) (UniProt Q9UQM7); conditions: Compound concentration 1000.0 nM
[2] = target: Serine/threonine-protein kinase PRP4 homolog (Homo sapiens) (UniProt Q13523); conditions: Compound concentration 1000.0 nM
[3] = target: Rhodopsin kinase GRK7 (Homo sapiens) (UniProt Q8WTQ7); conditions: Compound concentration 1000.0 nM
[4] = target: Serine/threonine-protein kinase TAO3 (Homo sapiens) (UniProt Q9H2K8); conditions: Compound concentration 1000.0 nM
[5] = target: Kappa-type opioid receptor (Homo sapiens) (UniProt P41145); conditions: Compound concentration 10.0 uM
[6] = target: Receptor tyrosine-protein kinase erbB-3 (Homo sapiens) (UniProt P21860); conditions: Compound concentration 1000.0 nM
[7] = target: Serine/threonine-protein kinase B-raf (Homo sapiens) (UniProt P15056); conditions: Compound concentration 1000.0 nM
[8] = target: 5'-AMP-activated protein kinase catalytic subunit alpha-1 (Homo sapiens) (UniProt Q13131); conditions: Compound concentration 1000.0 nM
[9] = target: Non-receptor tyrosine-protein kinase TYK2 (Homo sapiens) (UniProt P29597); conditions: Compound concentration 1000.0 nM
[10] = system: Epidermal growth factor receptor (Homo sapiens), P00533 [UNDEFINED MUTATION]; conditions: Compound concentration 1000.0 nM
[11] = target: Mitogen-activated protein kinase 8 (Homo sapiens) (UniProt P45983); conditions: Compound concentration 1000.0 nM
Chain of Mitogen-activated protein kinase 8 (Homo sapiens) (P45983 whole entry): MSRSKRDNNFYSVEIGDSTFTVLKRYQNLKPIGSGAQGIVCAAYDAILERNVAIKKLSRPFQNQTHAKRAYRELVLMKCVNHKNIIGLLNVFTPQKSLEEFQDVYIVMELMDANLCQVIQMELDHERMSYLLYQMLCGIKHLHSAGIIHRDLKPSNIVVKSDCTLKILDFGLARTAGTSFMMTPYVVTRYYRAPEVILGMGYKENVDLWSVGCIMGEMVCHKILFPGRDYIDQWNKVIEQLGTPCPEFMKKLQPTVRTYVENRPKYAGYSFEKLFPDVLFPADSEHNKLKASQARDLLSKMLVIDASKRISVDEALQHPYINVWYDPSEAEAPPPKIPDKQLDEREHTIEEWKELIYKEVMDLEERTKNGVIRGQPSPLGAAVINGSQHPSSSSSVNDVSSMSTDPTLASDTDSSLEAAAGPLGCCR

[12] = target: Serine/threonine-protein kinase 33 (Homo sapiens) (UniProt Q9BYT3); conditions: Compound concentration 1000.0 nM
[13] = target: Serine/threonine-protein kinase pim-2 (Homo sapiens) (UniProt Q9P1W9); conditions: Compound concentration 1000.0 nM
[14] = target: Macrophage colony-stimulating factor 1 receptor (Homo sapiens) (UniProt P07333); conditions: Compound concentration 1000.0 nM
[15] = target: Mitogen-activated protein kinase 7 (Homo sapiens) (UniProt Q13164); conditions: Compound concentration 1000.0 nM
[16] = target: Dual specificity protein kinase CLK2 (Homo sapiens) (UniProt P49760); conditions: Compound concentration 1000.0 nM
[17] = target: Fibroblast growth factor receptor 2 (Homo sapiens) (UniProt P21802); conditions: Compound concentration 1000.0 nM
[18] = system: Tyrosine-protein kinase ABL1 (Homo sapiens), P00519 [Q252H]; conditions: Compound concentration 1000.0 nM
[19] = target: Serine/threonine-protein kinase MAK (Homo sapiens) (UniProt P20794); conditions: Compound concentration 1000.0 nM
[20] = target: Serine/threonine-protein kinase mTOR (Homo sapiens) (UniProt P42345); conditions: Compound concentration 1000.0 nM
[21] = target: Serine/threonine-protein kinase PAK 4 (Homo sapiens) (UniProt O96013); conditions: Compound concentration 1000.0 nM
[22] = target: Serine/threonine-protein kinase PAK 3 (Homo sapiens) (UniProt O75914); conditions: Compound concentration 1000.0 nM
Chain of Serine/threonine-protein kinase PAK 3 (Homo sapiens) (O75914 whole entry, looked up): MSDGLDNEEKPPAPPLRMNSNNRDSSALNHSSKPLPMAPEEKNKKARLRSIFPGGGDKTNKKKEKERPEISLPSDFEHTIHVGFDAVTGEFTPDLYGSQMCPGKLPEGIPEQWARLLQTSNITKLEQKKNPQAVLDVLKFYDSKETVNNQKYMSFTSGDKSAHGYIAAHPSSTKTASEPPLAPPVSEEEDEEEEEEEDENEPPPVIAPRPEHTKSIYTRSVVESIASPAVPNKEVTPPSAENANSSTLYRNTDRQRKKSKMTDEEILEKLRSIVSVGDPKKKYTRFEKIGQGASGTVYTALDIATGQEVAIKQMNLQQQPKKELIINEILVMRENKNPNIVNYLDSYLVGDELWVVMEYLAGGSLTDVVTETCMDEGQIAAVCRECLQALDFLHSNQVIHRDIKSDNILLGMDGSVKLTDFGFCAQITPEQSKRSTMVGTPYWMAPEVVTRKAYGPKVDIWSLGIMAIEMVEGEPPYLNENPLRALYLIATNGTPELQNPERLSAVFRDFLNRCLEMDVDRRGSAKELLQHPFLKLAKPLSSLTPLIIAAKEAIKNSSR

[23] = system: Epidermal growth factor receptor (Homo sapiens), P00533 [G719C]; conditions: Compound concentration 1000.0 nM
[24] = target: MAP kinase-interacting serine/threonine-protein kinase 2 (Homo sapiens) (UniProt Q9HBH9); conditions: Compound concentration 1000.0 nM
[25] = system: Receptor-type tyrosine-protein kinase FLT3 (Homo sapiens), P36888 [D835V]; conditions: Compound concentration 1000.0 nM
[26] = target: Atypical kinase COQ8A, mitochondrial (Homo sapiens) (UniProt Q8NI60); conditions: Compound concentration 1000.0 nM
[27] = target: Serine/threonine-protein kinase tousled-like 2 (Homo sapiens) (UniProt Q86UE8); conditions: Compound concentration 1000.0 nM
[28] = system: Phosphatidylinositol 4,5-bisphosphate 3-kinase catalytic subunit alpha isoform (Homo sapiens), P42336 [E545A]; conditions: Compound concentration 1000.0 nM
[29] = target: Serine/threonine-protein kinase VRK2 (Homo sapiens) (UniProt Q86Y07); conditions: Compound concentration 1000.0 nM
Chain of Serine/threonine-protein kinase VRK2 (Homo sapiens) (Q86Y07 whole entry): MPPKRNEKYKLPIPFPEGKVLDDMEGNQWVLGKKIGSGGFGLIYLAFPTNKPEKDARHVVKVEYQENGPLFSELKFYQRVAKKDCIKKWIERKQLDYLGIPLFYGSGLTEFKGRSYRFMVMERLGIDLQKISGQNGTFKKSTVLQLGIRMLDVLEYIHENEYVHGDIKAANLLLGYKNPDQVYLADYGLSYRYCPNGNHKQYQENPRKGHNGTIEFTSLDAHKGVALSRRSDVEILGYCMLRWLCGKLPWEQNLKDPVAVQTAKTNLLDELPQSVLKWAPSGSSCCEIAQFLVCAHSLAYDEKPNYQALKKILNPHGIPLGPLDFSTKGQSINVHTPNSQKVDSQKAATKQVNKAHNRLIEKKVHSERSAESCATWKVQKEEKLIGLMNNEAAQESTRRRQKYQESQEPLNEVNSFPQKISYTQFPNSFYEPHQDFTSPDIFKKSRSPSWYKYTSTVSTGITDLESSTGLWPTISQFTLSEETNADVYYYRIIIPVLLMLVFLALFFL

[30] = target: Myosin-IIIb (Homo sapiens) (UniProt Q8WXR4); conditions: Compound concentration 1000.0 nM
[31] = target: Casein kinase II subunit alpha' (Homo sapiens) (UniProt P19784); conditions: Compound concentration 1000.0 nM
[32] = target: Serine/threonine-protein kinase PLK3 (Homo sapiens) (UniProt Q9H4B4); conditions: Compound concentration 1000.0 nM
[33] = target: Serine/threonine-protein kinase NLK (Homo sapiens) (UniProt Q9UBE8); conditions: Compound concentration 1000.0 nM
[34] = target: Calcium/calmodulin-dependent protein kinase type II subunit gamma (Homo sapiens) (UniProt Q13555); conditions: Compound concentration 1000.0 nM
[35] = target: Tyrosine-protein kinase receptor UFO (Homo sapiens) (UniProt P30530); conditions: Compound concentration 1000.0 nM
[36] = system: Tyrosine-protein kinase ABL1 (Homo sapiens), P00519 [F317I]; conditions: Compound concentration 1000.0 nM
[37] = target: Ephrin type-B receptor 2 (Homo sapiens) (UniProt P29323); conditions: Compound concentration 1000.0 nM
Chain of Ephrin type-B receptor 2 (Homo sapiens) (P29323 whole entry): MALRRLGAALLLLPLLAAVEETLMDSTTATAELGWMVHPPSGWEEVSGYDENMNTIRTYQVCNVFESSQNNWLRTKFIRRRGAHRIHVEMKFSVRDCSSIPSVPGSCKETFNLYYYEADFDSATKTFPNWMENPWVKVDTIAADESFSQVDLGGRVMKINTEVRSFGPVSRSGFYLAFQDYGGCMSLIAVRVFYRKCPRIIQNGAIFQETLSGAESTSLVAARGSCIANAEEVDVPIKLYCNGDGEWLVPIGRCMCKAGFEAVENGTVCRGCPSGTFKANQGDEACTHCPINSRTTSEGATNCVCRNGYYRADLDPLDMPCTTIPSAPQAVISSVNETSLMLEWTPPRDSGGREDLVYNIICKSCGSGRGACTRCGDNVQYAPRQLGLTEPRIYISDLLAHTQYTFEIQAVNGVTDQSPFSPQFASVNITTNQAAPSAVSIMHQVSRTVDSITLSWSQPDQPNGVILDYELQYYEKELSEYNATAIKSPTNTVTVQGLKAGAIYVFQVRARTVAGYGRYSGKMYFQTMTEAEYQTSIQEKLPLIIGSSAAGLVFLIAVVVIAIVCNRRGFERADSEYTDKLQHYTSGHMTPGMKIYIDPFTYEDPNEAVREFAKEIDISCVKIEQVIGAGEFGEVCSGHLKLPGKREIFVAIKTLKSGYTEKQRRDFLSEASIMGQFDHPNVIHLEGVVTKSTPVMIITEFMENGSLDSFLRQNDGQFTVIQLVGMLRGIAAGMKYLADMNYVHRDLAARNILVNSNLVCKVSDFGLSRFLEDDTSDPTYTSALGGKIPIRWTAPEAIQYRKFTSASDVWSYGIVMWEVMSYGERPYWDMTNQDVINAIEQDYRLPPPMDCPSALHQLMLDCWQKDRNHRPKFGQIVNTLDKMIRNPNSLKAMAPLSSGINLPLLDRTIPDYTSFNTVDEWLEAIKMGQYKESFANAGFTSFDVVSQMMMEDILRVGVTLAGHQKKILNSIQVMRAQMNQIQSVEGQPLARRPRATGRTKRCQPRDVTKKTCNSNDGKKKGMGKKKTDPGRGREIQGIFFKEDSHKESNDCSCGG

[38] = system: Tyrosine-protein kinase ABL1 (Homo sapiens), P00519 [H396P]; conditions: Compound concentration 1000.0 nM
[39] = target: Serine/threonine-protein kinase Nek11 (Homo sapiens) (UniProt Q8NG66); conditions: Compound concentration 1000.0 nM
Chain of Serine/threonine-protein kinase Nek11 (Homo sapiens) (Q8NG66 whole entry): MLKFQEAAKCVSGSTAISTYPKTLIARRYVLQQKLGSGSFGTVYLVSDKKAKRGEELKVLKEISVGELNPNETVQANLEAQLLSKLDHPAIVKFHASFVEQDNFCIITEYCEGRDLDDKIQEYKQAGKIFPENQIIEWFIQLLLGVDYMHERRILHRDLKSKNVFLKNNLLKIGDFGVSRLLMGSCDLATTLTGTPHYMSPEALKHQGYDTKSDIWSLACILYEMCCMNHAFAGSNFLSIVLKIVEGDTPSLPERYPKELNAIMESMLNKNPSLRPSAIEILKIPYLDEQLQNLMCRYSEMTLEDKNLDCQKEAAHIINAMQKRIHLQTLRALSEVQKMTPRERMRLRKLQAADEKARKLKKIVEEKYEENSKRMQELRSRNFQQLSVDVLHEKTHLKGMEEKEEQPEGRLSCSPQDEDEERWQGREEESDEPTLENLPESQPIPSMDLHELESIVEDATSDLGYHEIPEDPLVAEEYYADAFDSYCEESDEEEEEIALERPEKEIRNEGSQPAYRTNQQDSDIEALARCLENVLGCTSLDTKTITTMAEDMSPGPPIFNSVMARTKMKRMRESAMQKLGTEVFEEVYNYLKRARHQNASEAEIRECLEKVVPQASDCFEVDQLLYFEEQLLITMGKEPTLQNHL

[40] = target: Ephrin type-A receptor 4 (Homo sapiens) (UniProt P54764); conditions: Compound concentration 1000.0 nM
[41] = target: Death-associated protein kinase 3 (Homo sapiens) (UniProt O43293); conditions: Compound concentration 1000.0 nM
[42] = target: Platelet-derived growth factor receptor beta (Homo sapiens) (UniProt P09619); conditions: Compound concentration 1000.0 nM
Chain of Platelet-derived growth factor receptor beta (Homo sapiens) (P09619 whole entry): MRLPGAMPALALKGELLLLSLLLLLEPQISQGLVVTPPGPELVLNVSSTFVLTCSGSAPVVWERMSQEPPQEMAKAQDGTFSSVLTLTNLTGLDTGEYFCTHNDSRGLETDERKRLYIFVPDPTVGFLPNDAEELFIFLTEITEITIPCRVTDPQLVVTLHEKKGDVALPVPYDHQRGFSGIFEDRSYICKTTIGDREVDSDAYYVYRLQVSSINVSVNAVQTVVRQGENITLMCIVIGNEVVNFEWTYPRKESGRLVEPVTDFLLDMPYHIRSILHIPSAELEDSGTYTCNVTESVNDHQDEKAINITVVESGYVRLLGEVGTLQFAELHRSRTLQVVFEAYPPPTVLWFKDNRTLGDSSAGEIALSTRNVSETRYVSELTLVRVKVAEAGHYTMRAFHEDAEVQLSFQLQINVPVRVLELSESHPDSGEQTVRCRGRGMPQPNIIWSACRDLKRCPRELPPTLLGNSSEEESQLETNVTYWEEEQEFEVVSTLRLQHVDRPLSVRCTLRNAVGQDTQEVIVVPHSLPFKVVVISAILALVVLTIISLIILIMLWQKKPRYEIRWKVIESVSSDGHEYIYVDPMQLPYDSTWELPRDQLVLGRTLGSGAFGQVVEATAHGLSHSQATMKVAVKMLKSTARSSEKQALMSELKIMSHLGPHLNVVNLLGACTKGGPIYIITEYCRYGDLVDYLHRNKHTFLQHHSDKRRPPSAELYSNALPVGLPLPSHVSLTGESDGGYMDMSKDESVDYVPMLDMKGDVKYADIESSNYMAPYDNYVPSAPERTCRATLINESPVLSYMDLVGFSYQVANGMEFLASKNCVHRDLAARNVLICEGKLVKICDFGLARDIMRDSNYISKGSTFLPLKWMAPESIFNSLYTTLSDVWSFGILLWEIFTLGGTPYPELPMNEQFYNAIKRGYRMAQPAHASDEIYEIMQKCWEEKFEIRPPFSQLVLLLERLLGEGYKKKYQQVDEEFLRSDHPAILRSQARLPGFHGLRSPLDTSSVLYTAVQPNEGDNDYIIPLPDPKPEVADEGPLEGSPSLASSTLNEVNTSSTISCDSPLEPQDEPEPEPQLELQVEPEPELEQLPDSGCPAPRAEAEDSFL

[43] = target: cGMP-dependent protein kinase 1 (Homo sapiens) (UniProt Q13976); conditions: Compound concentration 1000.0 nM
Chain of cGMP-dependent protein kinase 1 (Homo sapiens) (Q13976 whole entry): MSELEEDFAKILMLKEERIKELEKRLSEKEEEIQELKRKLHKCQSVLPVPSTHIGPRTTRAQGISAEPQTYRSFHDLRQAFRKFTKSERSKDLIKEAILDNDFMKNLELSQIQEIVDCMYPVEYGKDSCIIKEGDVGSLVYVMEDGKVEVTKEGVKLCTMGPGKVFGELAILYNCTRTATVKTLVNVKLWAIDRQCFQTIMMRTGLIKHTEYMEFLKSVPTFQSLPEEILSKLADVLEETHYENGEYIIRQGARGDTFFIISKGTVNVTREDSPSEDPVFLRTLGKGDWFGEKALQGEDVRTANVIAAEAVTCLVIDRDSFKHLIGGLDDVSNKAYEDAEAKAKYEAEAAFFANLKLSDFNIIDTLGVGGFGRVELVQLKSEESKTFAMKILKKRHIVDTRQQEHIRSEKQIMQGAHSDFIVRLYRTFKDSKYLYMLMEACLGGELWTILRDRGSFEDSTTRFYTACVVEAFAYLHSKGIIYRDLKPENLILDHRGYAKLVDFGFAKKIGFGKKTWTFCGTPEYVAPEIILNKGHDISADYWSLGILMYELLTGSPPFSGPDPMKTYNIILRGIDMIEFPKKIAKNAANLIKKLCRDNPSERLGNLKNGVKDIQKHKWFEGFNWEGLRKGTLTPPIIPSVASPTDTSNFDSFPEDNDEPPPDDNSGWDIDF

[44] = target: Sigma intracellular receptor 2 (Homo sapiens) (UniProt Q5BJF2); conditions: Compound concentration 10.0 uM
[45] = target: Alpha-1D adrenergic receptor (Homo sapiens) (UniProt P25100); conditions: Compound concentration 10.0 uM

Compound: CCC(=N\O)/C(C)=C/c1ccc(F)c(C)c1 [A-226]
- residual activity [1]: 100%
- residual activity [2]: 85%
- residual activity [3]: 100%
- residual activity [4]: 46%
- inhibition [5]: 8.6%
- residual activity [6]: 76%
- residual activity [7]: 79%
- residual activity [8]: 73%
- residual activity [9]: 100%
- residual activity [10]: 73%
- residual activity [11]: 100%
- residual activity [12]: 96%
- residual activity [13]: 100%
- residual activity [14]: 90%
- residual activity [15]: 100%
- residual activity [16]: 88%
- residual activity [17]: 100%
- residual activity [18]: 100%
- residual activity [19]: 100%
- residual activity [20]: 100%
- residual activity [21]: 76%
- residual activity [22]: 63%
- residual activity [23]: 83%
- residual activity [24]: 100%
- residual activity [25]: 100%
- residual activity [26]: 91%
- residual activity [27]: 100%
- residual activity [28]: 100%
- residual activity [29]: 100%
- residual activity [30]: 67%
- residual activity [31]: 73%
- residual activity [32]: 100%
- residual activity [33]: 56%
- residual activity [34]: 90%
- residual activity [35]: 100%
- residual activity [36]: 100%
- residual activity [37]: 99%
- residual activity [38]: 100%
- residual activity [39]: 100%
- residual activity [40]: 100%
- residual activity [41]: 98%
- residual activity [42]: 86%
- residual activity [43]: 100%
- inhibition [44]: 33.4%
- inhibition [45]: -3.74%

Compound: CCC(=N\O)/C(C)=C/c1ccc(F)cc1 [A-079]
- residual activity [1]: 81%
- residual activity [2]: 100%
- residual activity [3]: 85%
- residual activity [4]: 86%
- inhibition [5]: 15.7%
- residual activity [6]: 100%
- residual activity [7]: 87%
- residual activity [8]: 99%
- residual activity [9]: 73%
- residual activity [10]: 65%
- residual activity [11]: 86%
- residual activity [12]: 100%
- residual activity [13]: 83%
- residual activity [14]: 91%
- residual activity [15]: 88%
- residual activity [16]: 78%
- residual activity [17]: 93%
- residual activity [18]: 69%
- residual activity [19]: 100%
- residual activity [20]: 100%
- residual activity [21]: 100%
- residual activity [22]: 89%
- residual activity [23]: 64%
- residual activity [24]: 100%
- residual activity [25]: 100%
- residual activity [26]: 78%
- residual activity [27]: 100%
- residual activity [28]: 76%
- residual activity [29]: 74%
- residual activity [30]: 100%
- residual activity [31]: 100%
- residual activity [32]: 86%
- residual activity [33]: 100%
- residual activity [34]: 100%
- residual activity [35]: 100%
- residual activity [36]: 77%
- residual activity [37]: 76%
- residual activity [38]: 72%
- residual activity [39]: 100%
- residual activity [40]: 74%
- residual activity [41]: 87%
- residual activity [42]: 100%
- residual activity [43]: 100%
- inhibition [44]: 22.6%
- inhibition [45]: -4.38%
